Consider one molecule from patent US8388930B2, “Diagnosis and assessment of skeletal related disease using calcium 41” (Lawrence LIvermore National Security, LLC, priority 2004, dated 2013).

Series [1] in a line: urinary 41Ca/Ca variability in monthly urine samples after oral 41Ca dose. The format is in vivo. Conditions: days 500 to 700 after 1.2 ng oral 41Ca dose, six human volunteers. The text has this:
^41Ca remains quantifiable via accelerator mass spectrometry (AMS) in human urine and blood for many years following a single chemically and radiologically benign oral or intravenous dose; this longevity makes urinary ^41Ca content very specific to bone turnover. […] Applicants also measured tracer distribution and increased ^41Ca release from pre-labeled bones in a human xenograft model of metastatic bone disease from prostate cancer. […] Low natural variability of urinary ^41Ca/Ca in humans will enable a non-invasive, highly sensitive clinical measure of bone turnover perturbations from metastatic bone disease.

Series [2] relates to human xenograft model of metastatic bone disease from prostate cancer. Description: tracer distribution and 41Ca release from pre-labeled bones in human xenograft model of metastatic bone disease. In kind it is in vivo, nude mice. From the text:
However, the ultimate value of these techniques for individual patients is uncertain, due (in part) to high natural variability of biomarkers in urine and serum (Kannis J A, McCloskey E V. Bone turnover and biochemical markers in malignancy. Cancer. 1997; 80:1538-45). Applicants believe that labeling the human skeleton with a ^41Ca tracer and monitoring urinary tracer abundance will provide a non-invasive, highly sensitive, clinically useful measure of bone turnover. The longest half-life isotope of calcium, ^41Ca, provides a sensitive method for tracking short and long-term bone turnover parameters. Due to extremely low natural abundance (<10^−15), a single sub-physiological ^41Ca dose (less than 1 ug=4 kBq=0.1 uCi) remains quantifiable via accelerator mass spectrometry (AMS) in blood and urine for many years: this longevity within the body's primary calcium pool makes ^41Ca variation specific to bone turnover (Weaver C M. Use of calcium tracers and biomarkers to determine calcium kinetics and bone turnover. Bone. 1998; 22(5):103S-104S). […]
^41Ca remains quantifiable via accelerator mass spectrometry (AMS) in human urine and blood for many years following a single chemically and radiologically benign oral or intravenous dose; this longevity makes urinary ^41Ca content very specific to bone turnover. […]

The conditions of series [3]: cited from earlier work.

In the case of `[41Ca]` [^41Ca, radioactive calcium isotope ^41Ca], the “41Ca/Ca scatter about individual linear fits” value in series [1] was 5±3%. In series [2] (human xenograft tumor model in nude mice), the tracer distribution entry is given as “preferentially labels bone”. In addition, the “serum 41Ca/Ca correlation with disease measures” value in series [2] (serum, pre-labeled bones, xenograft model of prostate cancer bone metastasis) is “positively correlating with tumor size, skeletal disruption, serum tumor markers, and degree of hypercalcemia”. For the same molecule, in series [3] (ingested), the “lifetime radioactive exposure from ingested dose” value is recorded as under 2e-10 Sv/Bq. For the same molecule, the “lifetime radioactive exposure from injected dose” value in series [3] (injected) is reported as under 7e-10 Sv/Bq.
